Read-outs that look alike come from different tables or passages of the source.
Key:
rabbit galectin-3 = molecular target: T1, rabbit galectin-3 (Oryctolagus cuniculus, UniProt P47845); assay: Galectins fluorescence polarization binding assay
T1 construct: made in house
Description: Briefly, FP was measured from above in 96-well microtiter plates (black polystyrene; Costar, Corning, NY) using a POLARStar® instrument (BMG Labtech, Ortenberg, Germany). The final sample volume in each well was 200 μL. For inhibition assays, 100 μL of galectin and probe at fixed concentration was mixed with 100 μL of inhibitor solution and FP was measured as described above. Control wells containing only fluorescent probe or fluorescein were included.
All dilutions and measurements were done in PBS with plates incubated at room temperature for 1 h.

[1] = test system: high fat diet (HFD) rabbit model of metabolic-associated steatohepatitis (MASH); assay: HFD rabbit study, prolonged 4-week treatment: protein expression in liver homogenates; type: in vivo, New Zealand White rabbits; conditions: HFD rabbits, weeks 9–12, mean±SD, n=3
Description: (§1) After 1 week (W) of RD, the animals (n = 44) were randomly assigned to the following groups (Table 1B): • Control rabbits continued to receive a RD for 12 weeks and were treated with vehicle for 5 days a week (days 1–5, p.o.) during the last 4 weeks before culling (RD + 4W Veh group); • Rabbits received a HFD for 8 weeks and were culled (HFD 8W group); • Rabbits received a HFD for 12 weeks and were treated with vehicle for 5 days a week (days 1–5, p.o.) during the last 4 weeks before culling (HFD+4W Veh group); • Rabbits received a HFD for 12 weeks and were treated with GB1211 (0.3 mg/kg) for 5 days a week (days 1–5, p.o.) during the last 4 weeks before culling (HFD + 4W 0.3 mg group); • Rabbits received a HFD for 12 weeks and were treated with GB1211 (1.0 mg/kg) for 5 days a week (days 1–5, p.o.) during the last 4 weeks before culling (HFD + 4W 1.0 mg group); • Rabbits received a HFD for 12 weeks and were treated with GB1211 (5.0 mg/kg) for 5 days a week (days 1–5, p.o.) during the last 4 weeks before culling (HFD + 4W 5.0 mg group).
Quantitative analyses of collagen, IL6 and TNFα expression in liver biopsies were carried out using available commercial assays. Collagen content was evaluated in liver homogenates employing the Sircol S2000 assay (Biocolor, Carrickfergus, United Kingdom), in accordance with manufacturer’s protocols. Briefly, 30 mg liver biopsies were fragmented in the appropriate reagent and the supernatant was bound to a dye reagent containing Sirius Red, which would generate a colorimetric reaction quantified as absorbance using an internal collagen standard curve. IL6 and TNFα were quantified in liver homogenates using ELISA assay kits (both from Cloud-Clone Corp, Katy, TX). Briefly, 50 mg liver biopsies were homogenized in proprietary lysis buffer and the supernatants were analyzed by sandwich immunoassays, following the producer’s instructions.

[2] = In vitro plasma protein binding in rabbit blood (rapid equilibrium dialysis, LC-MS/MS); type: in vitro ADME; conditions: nominal 0.2, 2 and 20 μg/mL, read-out: unbound free fraction
[3] = test system: high fat diet (HFD) rabbit model of metabolic-associated steatohepatitis (MASH); assay: HFD rabbit study, prolonged 4-week treatment (weeks 9–12): clinical and biochemical data; type: in vivo, New Zealand White rabbits; conditions: HFD rabbits, mean±SD, n=7
Description: as §1
The oral glucose tolerance test (OGTT) was performed in accordance with the published method ([Filippi et al., 2009]). Briefly, after an overnight fast, a 50% glucose solution was orally administered to the animals at a dose of 1.5 g/kg. Blood samples were collected before and 15, 30, and 120 min after glucose loading. The incremental area under the curve (iAUC) was calculated by using GraphPad Prism (GraphPad Software, San Diego, CA). Blood samples for analyses were obtained from the marginal ear vein at week 8 or 12, in all groups. All blood samples were collected in standard conditions, before 10 a.m. after an overnight fasting. The blood was immediately centrifuged at 2,000 g for 20 min at 4°C and collected plasma/serum stored at −80°C until assayed. Plasma glucose, total cholesterol, triglycerides, transaminases (AST and ALT), and gamma-glutamyl transferase levels were measured using an automated system (Cobas 8000, Roche Diagnostics International AG, Rotkreuz, Switzerland). Serum alkaline phosphatase, albumin and total bilirubin levels were measured at IDEXX Laboratories (Kornwestheim, Germany), using an automated system (AU480, Beckman-Coulter, Brea, CA) with kinetic and photometric colour tests as per the following methods: alkaline phosphatase - alkaline buffer solution [2-amino-2-methylpropanol (AMP) in conjunction with p-nitrophenyl phosphate (pNPP)], according to the recommendation of the International Federation for Clinical Chemistry; albumin - the reaction of bromocresol green with albumin produces a colour complex, the absorption of which is measured dichromatically ([Doumas et al., 1971]); total bilirubin - a stabilized diazonium salt, 3,5-dichlorophenyldiazonium tetrafluoroborate (DPD), reacts with bilirubin to formazobilirubin, which absorbs at 570 nm ([Tolman and Rej, 1999]).
Mean arterial blood pressure (MAP) was measured by using a polyethylene catheter inserted into a femoral artery at week 8 or 12, after ketamine (10 mg/kg i.v.) and sodium thiopental (50 mg/kg i.v.) sedation.

T1 sequence (P47845 whole entry): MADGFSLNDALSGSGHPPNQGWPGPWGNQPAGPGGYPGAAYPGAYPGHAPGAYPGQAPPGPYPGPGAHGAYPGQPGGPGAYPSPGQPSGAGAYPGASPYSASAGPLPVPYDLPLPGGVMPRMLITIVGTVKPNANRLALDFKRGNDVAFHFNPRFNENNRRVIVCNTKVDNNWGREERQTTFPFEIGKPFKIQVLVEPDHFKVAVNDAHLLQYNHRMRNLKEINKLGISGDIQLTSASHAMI

With `OC[C@H]1O[C@H](Sc2cncc(Br)c2)[C@H](O)[C@@H](n2cc(-c3cc(F)c(F)c(F)c3)nn2)[C@H]1O` [selvigaltin] the Kd (rabbit galectin-3; equivalent to KD of 12 nM, read-out: rabbit galectin-3 KD, equivalent concentration (converted)) was 12 nM, the Kd (rabbit galectin-3; fluorescence polarization, mean ± SD, n = 3, read-out: KD rabbit galectin-3) was 12 nM and the “Collagen protein in liver homogenate” value ([1]; 0.3 mg/kg p.o.) was 57.63 ± 2.73 µg/mg Liver. The “IL6 protein in liver homogenate” value ([1]; 0.3 mg/kg p.o.) was 76.12 ± 8.47 pg/g Liver, the “TNFα protein in liver homogenate” value ([1]; 0.3 mg/kg p.o.) was 1.61 ± 0.54 pg/mg Liver and the “Collagen protein in liver homogenate” value ([1]; 1.0 mg/kg p.o.) was 45.25 ± 3.42 µg/mg Liver. The “IL6 protein in liver homogenate” value ([1]; 1.0 mg/kg p.o.) was 63.53 ± 20.39 pg/g Liver, the “TNFα protein in liver homogenate” value ([1]; 1.0 mg/kg p.o.) was 1.24 ± 0.58 pg/mg Liver and the “Collagen protein in liver homogenate” value ([1]; 5.0 mg/kg p.o.) was 50.86 ± 5.22 µg/mg Liver. The “IL6 protein in liver homogenate” value ([1]; 5.0 mg/kg p.o.) was 64.27 ± 18.36 pg/g Liver, the “TNFα protein in liver homogenate” value ([1]; 5.0 mg/kg p.o.) was 1.33 ± 0.68 pg/mg Liver and the fraction unbound [2] was 0.141. For the same molecule, the ALP ([3]; 0.3 mg/kg p.o. 5 days/week) was 69.43 ± 38.22 U/L, the ALT ([3]; 0.3 mg/kg p.o. 5 days/week) was 45.71 ± 22.51 U/L and the AST ([3]; 0.3 mg/kg p.o. 5 days/week) was 74.29 ± 51.50 U/L. For the same molecule, the Albumin ([3]; 0.3 mg/kg p.o. 5 days/week) was 38.29 ± 4.42 g/L, the Bilirubin ([3]; 0.3 mg/kg p.o. 5 days/week) was 17.91 ± 13.00 µM and the Glycaemia ([3]; 0.3 mg/kg p.o. 5 days/week) was 1.21 ± 0.15 gr/L. For the same molecule, the “Liver Weight” value ([3]; 0.3 mg/kg p.o. 5 days/week) was 3.56 ± 0.28 % of BW, the MAP ([3]; 0.3 mg/kg p.o. 5 days/week) was 144.91 ± 16.18 mmHg and the “OGTT (iAUC)” value ([3]; 0.3 mg/kg p.o. 5 days/week) was 165.51 ± 20.71. The “Plasma Cholesterol” value ([3]; 0.3 mg/kg p.o. 5 days/week) was 2,277.43 ± 1,078.47 mg/dL, the “Plasma Triglycerides” value ([3]; 0.3 mg/kg p.o. 5 days/week) was 374.00 ± 619.70 mg/dL and the “Tissue Triglycerides” value ([3]; 0.3 mg/kg p.o. 5 days/week) was 14.76 ± 2.26 nmol/mg Liver. For the same molecule, the “VAT Weight” value ([3]; 0.3 mg/kg p.o. 5 days/week) was 0.67 ± 0.21 % of BW, the γGT ([3]; 0.3 mg/kg p.o. 5 days/week) was 30.08 ± 22.90 U/L and the ALP ([3]; 1.0 mg/kg p.o. 5 days/week) was 72.86 ± 65.69 U/L. The ALT ([3]; 1.0 mg/kg p.o. 5 days/week) was 58.14 ± 27.72 U/L, the AST ([3]; 1.0 mg/kg p.o. 5 days/week) was 59.00 ± 37.48 U/L and the Albumin ([3]; 1.0 mg/kg p.o. 5 days/week) was 38.71 ± 2.63 g/L. For the same molecule, the Bilirubin ([3]; 1.0 mg/kg p.o. 5 days/week) was 9.53 ± 3.73 µM, the Glycaemia ([3]; 1.0 mg/kg p.o. 5 days/week) was 1.90 ± 0.87 gr/L and the “Liver Weight” value ([3]; 1.0 mg/kg p.o. 5 days/week) was 3.73 ± 0.32 % of BW. The MAP ([3]; 1.0 mg/kg p.o. 5 days/week) was 151.23 ± 26.21 mmHg, the “OGTT (iAUC)” value ([3]; 1.0 mg/kg p.o. 5 days/week) was 189.37 ± 22.39 and the “Plasma Cholesterol” value ([3]; 1.0 mg/kg p.o. 5 days/week) was 2,182.86 ± 776.09 mg/dL. For the same molecule, the “Plasma Triglycerides” value ([3]; 1.0 mg/kg p.o. 5 days/week) was 157.29 ± 68.66 mg/dL, the “Tissue Triglycerides” value ([3]; 1.0 mg/kg p.o. 5 days/week) was 14.34 ± 1.35 nmol/mg Liver and the “VAT Weight” value ([3]; 1.0 mg/kg p.o. 5 days/week) was 0.68 ± 0.24 % of BW. For the same molecule, the γGT ([3]; 1.0 mg/kg p.o. 5 days/week) was 27.71 ± 14.16 U/L, the ALP ([3]; 5.0 mg/kg p.o. 5 days/week) was 49.57 ± 30.84 U/L and the ALT ([3]; 5.0 mg/kg p.o. 5 days/week) was 56.43 ± 20.02 U/L. The AST ([3]; 5.0 mg/kg p.o. 5 days/week) was 62.43 ± 15.80 U/L, the Albumin ([3]; 5.0 mg/kg p.o. 5 days/week) was 39.29 ± 5.94 g/L and the Bilirubin ([3]; 5.0 mg/kg p.o. 5 days/week) was 15.45 ± 9.05 µM. For the same molecule, the Glycaemia ([3]; 5.0 mg/kg p.o. 5 days/week) was 1.43 ± 0.35 gr/L, the “Liver Weight” value ([3]; 5.0 mg/kg p.o. 5 days/week) was 3.56 ± 0.16 % of BW and the MAP ([3]; 5.0 mg/kg p.o. 5 days/week) was 141.04 ± 30.52 mmHg. The “OGTT (iAUC)” value ([3]; 5.0 mg/kg p.o. 5 days/week) was 165.00 ± 2.65, the “Plasma Cholesterol” value ([3]; 5.0 mg/kg p.o. 5 days/week) was 1,546.43 ± 350.47 mg/dL and the “Plasma Triglycerides” value ([3]; 5.0 mg/kg p.o. 5 days/week) was 191.43 ± 234.40 mg/dL. For the same molecule, the “Tissue Triglycerides” value ([3]; 5.0 mg/kg p.o. 5 days/week) was 14.51 ± 1.49 nmol/mg Liver, the “VAT Weight” value ([3]; 5.0 mg/kg p.o. 5 days/week) was 0.87 ± 0.32 % of BW and the γGT ([3]; 5.0 mg/kg p.o. 5 days/week) was 21.29 ± 13.11 U/L.

From publication PMC11322497 (Frontiers in Pharmacology, 2024)
